Measured values: patent publication US10294202B2, “Pyrrolidinones as herbicides” (FMC Corporation, priority 2013, dated 2019)

What was measured:
bromegrass, downy = assay: Test D pre-/postemergence herbicide test; assay type: in vivo, Bromus tectorum; settings: for Plant response rating: Bromegrass, Downy, scale 0 to 100; for Plant response rating, Bromegrass, Downy: scale 0 to 100 (0 no effect, 100 complete control)
Method in brief: (§1)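 Visual injury score, 0 (no effect) to 100 (complete control), taken 7–21 d post-treatment against untreated controls. Application was preemergence in silt loam and postemergence at 1- to 4-leaf stage, using a surfactant-containing non-phytotoxic solvent formulation.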

wheat, spring = assay: Test D pre-/postemergence herbicide test; assay type: in vivo, Triticum aestivum; settings: for Plant response rating: Postemergence, Wheat, Spring, scale 0 to 100; for Plant response rating, Wheat, Spring: Preemergence, scale 0 to 100 (0 no effect, 100 complete control)
Method in brief: as §1

wheat, winter = assay: Test D pre-/postemergence herbicide test; assay type: in vivo, Triticum aestivum; settings: for Plant response rating: Postemergence, Wheat, Winter, scale 0 to 100; for Plant response rating, Wheat, Winter: Preemergence, scale 0 to 100 (0 no effect, 100 complete control)
Method in brief: as §1

johnsongrass = assay: Test E preemergence herbicide test; assay type: in vivo, Sorghum halepense; set-up: key: 0 = no effect, 100 = complete control
Excerpt: Seeds of plant species selected from corn (Zea mays), soybean (Glycine max), velvetleaf (Abutilon theophrasti), lambsquarters (Chenopodium album), wild poinsettia (Euphorbia heterophylla), pigweed, palmer (palmer pigweed, Amaranthus palmeri), waterhemp (common waterhemp, Amaranthus rudis), surinam grass (Brachiaria decumbens), crabgrass, large (large crabgrass, Digitaria sanguinalis), crabgrass, Brazil (Brazilian crabgrass, Digitaria horizontalis), panicum, fall (fall panicum, Panicum dichotomiflorum), foxtail, giant (giant foxtail, Setaria faberii), foxtail, green (green foxtail, Setaria viridis), goosegrass (Eleusine indica), johnsongrass (Sorghum halepense), ragweed (common ragweed, Ambrosia elatior), barnyardgrass (Echinochloa crus-galli), sandbur (southern sandbur, Cenchrus echinatus), arrowleaf […] rhombifolia), ryegrass, Italian (Italian ryegrass, Lolium multiflorum), dayflower, VA (Virginia dayflower, Commelina virginica), field bindweed (Convolvulus arvensis), morningglory (Ipomoea coccinea), nightshade (eastern black nightshade, Solanum ptycanthum), kochia (Kochia scoparia), nutsedge, yellow (yellow nutsedge, Cyperus esculentus), cocklebur (common cocklebur, Xanthium strumarium), smartweed (ladysthumb smartweed, Polygonum Persicaria) and beggarticks (hairy beggarticks, Bidens pilosa), were planted into a silt loam soil and treated preemergence with test chemicals formulated in a non-phytotoxic solvent mixture which included a surfactant. Treated plants and controls were maintained in a greenhouse for 21 days, after which time all species were compared to controls and visually evaluated. Plant response ratings, summarized in Table E, are based on a scale of 0 to 100 where 0 is no effect and 100 is complete control. A dash (-) response means no test result.

field violet = assay: Test D pre-/postemergence herbicide test; assay type: in vivo, Viola arvensis; settings: for Plant response rating: Field Violet, scale 0 to 100; for Plant response rating, Field Violet: scale 0 to 100 (0 no effect, 100 complete control)
Method in brief: as §1

blackgrass = assay: Test D pre-/postemergence herbicide test; assay type: in vivo, Alopecurus myosuroides; settings: for Plant response rating: Blackgrass, scale 0 to 100; for Plant response rating, Blackgrass: scale 0 to 100 (0 no effect, 100 complete control)
Method in brief: as §1

radish, wild = assay: Test D pre-/postemergence herbicide test; assay type: in vivo, Raphanus raphanistrum; settings: for Plant response rating: Postemergence, Radish, Wild, scale 0 to 100; for Plant response rating, Radish, Wild: Preemergence, scale 0 to 100 (0 no effect, 100 complete control)
Method in brief: as §1

ryegrass, Italian = assay: Test D pre-/postemergence herbicide test; assay type: in vivo, Lolium multiflorum; settings: for Plant response rating: Postemergence, Ryegrass, Italian, scale 0 to 100; for Plant response rating, Ryegrass, Italian: Preemergence, scale 0 to 100 (0 no effect, 100 complete control)
Method in brief: as §1

O=C1NCC(c2ccc(F)c(F)c2)C1C(=O)Nc1cccc(F)c1F (stereo not drawn) [Compound 17, N-(2,3-difluorophenyl)-4-(3,4-difluorophenyl)-2-oxo-3-pyrrolidinecarboxamide]
Plant response rating (bromegrass, downy; Postemergence, 16 g ai/ha): 0
Plant response rating (bromegrass, downy; Postemergence, 31 g ai/ha): 0
Plant response rating (bromegrass, downy; Postemergence, 62 g ai/ha): 0
Plant response rating (bromegrass, downy; Postemergence, 125 g ai/ha): 0
Plant response rating (bromegrass, downy; Postemergence, 250 g ai/ha): 0
Plant response rating (wheat, spring; 16 g ai/ha): 0
Plant response rating (wheat, spring; 31 g ai/ha): 0
Plant response rating (wheat, spring; 62 g ai/ha): 0
Plant response rating (wheat, spring; 125 g ai/ha): 0
Plant response rating (wheat, spring; 250 g ai/ha): 0
Plant response rating (wheat, winter; 16 g ai/ha): 0
Plant response rating (wheat, winter; 31 g ai/ha): 0
Plant response rating (wheat, winter; 62 g ai/ha): 0
Plant response rating (wheat, winter; 125 g ai/ha): 0
Plant response rating (wheat, winter; 250 g ai/ha): 0
Plant response rating, Johnsongrass (johnsongrass; 16 g ai/ha): 0
Plant response rating, Johnsongrass (johnsongrass; 31 g ai/ha): 0
Plant response rating, Johnsongrass (johnsongrass; 62 g ai/ha): 0
Plant response rating, Johnsongrass (johnsongrass; 125 g ai/ha): 0
Plant response rating, Johnsongrass (johnsongrass; 250 g ai/ha): 0
Plant response rating (field violet; Postemergence, 16 g ai/ha): 0
Plant response rating (field violet; Postemergence, 31 g ai/ha): 0
Plant response rating (field violet; Postemergence, 62 g ai/ha): 0
Plant response rating (field violet; Postemergence, 125 g ai/ha): 0
Plant response rating (field violet; Postemergence, 250 g ai/ha): 10
Plant response rating (blackgrass; Postemergence, 16 g ai/ha): 0
Plant response rating (blackgrass; Postemergence, 31 g ai/ha): 0
Plant response rating (blackgrass; Postemergence, 62 g ai/ha): 0
Plant response rating (blackgrass; Postemergence, 125 g ai/ha): 0
Plant response rating (blackgrass; Postemergence, 250 g ai/ha): 0
Plant response rating (radish, wild; 16 g ai/ha): 0
Plant response rating (radish, wild; 31 g ai/ha): 0
Plant response rating (radish, wild; 62 g ai/ha): 0
Plant response rating (radish, wild; 125 g ai/ha): 15
Plant response rating (radish, wild; 250 g ai/ha): 15
Plant response rating (ryegrass, Italian; 16 g ai/ha): 0
Plant response rating (ryegrass, Italian; 31 g ai/ha): 0
Plant response rating (ryegrass, Italian; 62 g ai/ha): 0
Plant response rating (ryegrass, Italian; 125 g ai/ha): 0
Plant response rating (ryegrass, Italian; 250 g ai/ha): 0

O=C1NC[C@H](c2cccc(C(F)(F)F)c2)[C@H]1C(=O)Nc1ccccc1F [Compound 204, (3R,4S)—N-(2-fluorophenyl)-2-oxo-4-[3-(trifluoromethyl)phenyl]-3-pyrrolidinecarboxamide]
Plant response rating, Bromegrass, Downy (bromegrass, downy; Preemergence, 62 g ai/ha): 20
Plant response rating, Bromegrass, Downy (bromegrass, downy; Preemergence, 125 g ai/ha): 35
Plant response rating, Bromegrass, Downy (bromegrass, downy; Preemergence, 31 g ai/ha): 0
Plant response rating (bromegrass, downy; Preemergence, 250 g ai/ha): 45
Plant response rating, Wheat, Spring (wheat, spring; 62 g ai/ha): 0
Plant response rating, Wheat, Spring (wheat, spring; 125 g ai/ha): 25
Plant response rating, Wheat, Spring (wheat, spring; 31 g ai/ha): 0
Plant response rating, Wheat, Spring (wheat, spring; 250 g ai/ha): 30
Plant response rating, Wheat, Winter (wheat, winter; 62 g ai/ha): 15
Plant response rating, Wheat, Winter (wheat, winter; 125 g ai/ha): 15
Plant response rating, Wheat, Winter (wheat, winter; 31 g ai/ha): 5
Plant response rating, Wheat, Winter (wheat, winter; 250 g ai/ha): 20
Plant response rating, Johnsongrass (johnsongrass; 31 g ai/ha): 0
Plant response rating, Johnsongrass (johnsongrass; 62 g ai/ha): 0
Plant response rating, Johnsongrass (johnsongrass; 125 g ai/ha): 35
Plant response rating, Johnsongrass (johnsongrass; 250 g ai/ha): 40
Plant response rating, Field Violet (field violet; Preemergence, 62 g ai/ha): 15
Plant response rating, Field Violet (field violet; Preemergence, 125 g ai/ha): 25
Plant response rating, Field Violet (field violet; Preemergence, 31 g ai/ha): 10
Plant response rating (field violet; Preemergence, 250 g ai/ha): 25
Plant response rating, Blackgrass (blackgrass; Preemergence, 62 g ai/ha): 10
Plant response rating, Blackgrass (blackgrass; Preemergence, 125 g ai/ha): 40
Plant response rating, Blackgrass (blackgrass; Preemergence, 31 g ai/ha): 5
Plant response rating (blackgrass; Preemergence, 250 g ai/ha): 65
Plant response rating, Radish, Wild (radish, wild; 62 g ai/ha): 0
Plant response rating, Radish, Wild (radish, wild; 125 g ai/ha): 0
Plant response rating, Radish, Wild (radish, wild; 31 g ai/ha): 0
Plant response rating, Radish, Wild (radish, wild; 250 g ai/ha): 0
Plant response rating, Ryegrass, Italian (ryegrass, Italian; 62 g ai/ha): 15
Plant response rating, Ryegrass, Italian (ryegrass, Italian; 125 g ai/ha): 45
Plant response rating, Ryegrass, Italian (ryegrass, Italian; 31 g ai/ha): 5
Plant response rating, Ryegrass, Italian (ryegrass, Italian; 250 g ai/ha): 60
